Assay results taken from patent publication US5919756A, “Amides” (Eli Lilly and Company, priority 1997, dated 1999).
In brackets after ≈: the same amount, converted by molar mass.

Columns and labels:
Assay type in all cases: cell-based
[1] = system: Staphylococcus haemolyticus 105; test: Broth micro-dilution MIC, SH 105; settings: unit assumed
Experimental: (§1) The antibacterial efficacy of the present compounds is illustrated in TABLE 2. The minimal inhibitory concentrations (MICs) were determined using a standard broth micro-dilution assay.

[2] = system: Enterococcus, Sensitive (4-6 isolates); test: Enterococcus screen, broth micro-dilution MIC, sensitive isolates; parameters: unit not given here; settings: mean of 4-6 isolates
Experimental: as §1

[3] = system: Staphylococcus aureus 489; test: Broth micro-dilution MIC, SA 489; settings: unit assumed
Experimental: as §1

[4] = system: Enterococcus, Resistant (4-6 isolates); test: Enterococcus screen, broth micro-dilution MIC, resistant isolates; parameters: unit not given here; settings: mean of 4-6 isolates
Experimental: as §1

[5] = system: Staphylococcus aureus 447; test: Broth micro-dilution MIC, SA 447; settings: unit assumed
Experimental: as §1

[6] = system: Staphylococcus aureus 446; test: Broth micro-dilution MIC, SA 446; settings: unit assumed
Experimental: as §1

[7] = system: Streptococcus pneumoniae P1; test: Broth micro-dilution MIC, S PN P1; settings: unit assumed
Experimental: as §1

[8] = system: Streptococcus pyogenes 203; test: Broth micro-dilution MIC, S PY 203; settings: unit assumed
Experimental: as §1

[9] = system: Staphylococcus epidermis 270; test: Broth micro-dilution MIC, SE 270; settings: unit assumed
Experimental: as §1

[10] = system: Staphylococcus haemolyticus 415; test: Broth micro-dilution MIC, SH 415; settings: unit assumed
Experimental: as §1

Molecule | MIC, SH105 [1] | Minimum Inhibitory Concentrations (MICs), Mean Values of 4-6 Isolates, Sensitive [2] | MIC, SA 489 [3] | Minimum Inhibitory Concentrations (MICs), Mean Values of 4-6 Isolates, Resistant [4] | MIC, SA 447 [5] | MIC, SA 446 [6] | MIC, S PN P1 [7] | MIC, S PY 203 [8] | MIC, SE270 [9] | MIC, SH415 [10]
N^4 -(4-phenylbenzyl)A82846B, (4-cyclohexylphenyl) amide, trifluoroacetate salt [Example 8] | 4 µg/mL | 0.33 | 4 µg/mL | 6.7 | 2 µg/mL | 2 µg/mL | ≤ 0.06 µg/mL | ≤ 0.06 µg/mL | 2 µg/mL | 4 µg/mL
CNC(CC(C)C)C(=O)NC1C(=O)NC(CC(N)=O)C(=O)NC2C(=O)NC3C(=O)NC(C(=O)NC(C(=O)NCCCN(C)C)c4cc(O)cc(O)c4-c4cc3ccc4O)C(OC3CC(C)(N)C(O)C(C)O3)c3ccc(c(Cl)c3)Oc3cc2cc(c3OC2OC(CO)C(O)C(O)C2OC2CC(C)(NCc3ccc(-c4ccccc4)cc3)C(O)C(C)O2)Oc2ccc(cc2Cl)C1O (stereo not drawn) [Example 21, N^4-(4-phenylbenzyl)A82846B, (3-(dimethylamino)-n-propyl) amide] | 0.5 µg/mL (≈ 0.271 µM) | 0.054 | 2 µg/mL (≈ 1.09 µM) | 1.2 | 2 µg/mL (≈ 1.09 µM) | 4 µg/mL (≈ 2.17 µM) | ≤ 0.06 µg/mL | ≤ 0.06 µg/mL | 0.5 µg/mL (≈ 0.271 µM) | 2 µg/mL (≈ 1.09 µM)
CNC(CC(C)C)C(=O)NC1C(=O)NC(CC(N)=O)C(=O)NC2C(=O)NC3C(=O)NC(C(=O)NC(C(=O)NCCC(c4ccccc4)c4ccccc4)c4cc(O)cc(O)c4-c4cc3ccc4O)C(OC3CC(C)(N)C(O)C(C)O3)c3ccc(c(Cl)c3)Oc3cc2cc(c3OC2OC(CO)C(O)C(O)C2OC2CC(C)(NCc3ccc(-c4ccccc4)cc3)C(O)C(C)O2)Oc2ccc(cc2Cl)C1O (stereo not drawn) [Example 22, N^4-(4-phenylbenzyl)A82846B, (3,3-diphenyl-n-propyl) amide] | 8 µg/mL (≈ 4.1 µM) | 0.87 | 32 µg/mL (≈ 16.4 µM) | 1.68 | 32 µg/mL (≈ 16.4 µM) | 32 µg/mL (≈ 16.4 µM) | 0.125 µg/mL (≈ 0.064 µM) | 0.125 µg/mL (≈ 0.064 µM) | 16 µg/mL (≈ 8.2 µM) | 8 µg/mL (≈ 4.1 µM)
N^4 -(4-PHENOXYBENZYL)A82846B, 3-(DIMETHYLAMINO)PROPYLAMIDE, TRIFLUOROACETATE SALT [Example 1] | 2 µg/mL | 0.13 | 2 µg/mL | 1.4 | 1 µg/mL | 4 µg/mL | ≤ 0.125 µg/mL | ≤ 0.06 µg/mL | 0.25 µg/mL | 2 µg/mL
CCCCc1ccc(CNC2(C)CC(OC3C(Oc4c5cc6cc4Oc4ccc(cc4Cl)C(OC4CC(C)(N)C(O)C(C)O4)C4NC(=O)C(NC(=O)C6NC(=O)C(CC(N)=O)NC(=O)C(NC(=O)C(CC(C)C)NC)C(O)c6ccc(c(Cl)c6)O5)c5ccc(O)c(c5)-c5c(O)cc(O)cc5C(C(=O)NCCc5ccccc5)NC4=O)OC(CO)C(O)C3O)OC(C)C2O)cc1.O=C(O)C(F)(F)F (stereo not drawn) [Example 15, N^4-(4-n-butylbenzyl)A82846B, phenethylamide, trifluoroacetate salt] | 1 µg/mL | 0.22 | 2 µg/mL | 1.7 | 2 µg/mL | 2 µg/mL | ≤ 0.06 µg/mL | ≤ 0.06 µg/mL | 2 µg/mL | 2 µg/mL
N^4 -(4-phenoxybenzyl)A82846B, benzylamide, trifiuoroacetate salt [Example 9] | 1 µg/mL | 0.082 | 1 µg/mL | 2 | 1 µg/mL | 1 µg/mL | ≤ 0.06 µg/mL | ≤ 0.06 µg/mL | 0.5 µg/mL | 1 µg/mL
CNC(CC(C)C)C(=O)NC1C(=O)NC(CC(N)=O)C(=O)NC2C(=O)NC3C(=O)NC(C(=O)NC(C(=O)NCCCc4ccccc4)c4cc(O)cc(O)c4-c4cc3ccc4O)C(OC3CC(C)(N)C(O)C(C)O3)c3ccc(c(Cl)c3)Oc3cc2cc(c3OC2OC(CO)C(O)C(O)C2OC2CC(C)(N)C(O)C(C)O2)Oc2ccc(cc2Cl)C1O (stereo not drawn) [Example 20, A82846B, (3-phenyl-n-propyl) amide] | 0.125 µg/mL (≈ 0.0731 µM) | 0.22 | ≤ 0.06 µg/mL | 11 | ≤ 0.06 µg/mL | 0.125 µg/mL (≈ 0.0731 µM) | ≤ 0.06 µg/mL | ≤ 0.06 µg/mL | ≤ 0.06 µg/mL | 0.25 µg/mL (≈ 0.146 µM)
N^4 -(4-phenylbenzyl)A82846B, methylamide, trifluoroacetate salt [Example 2] | 0.125 µg/mL | 0.041 | 1 µg/mL | 1.19 | 0.5 µg/mL | 1 µg/mL | ≤ 0.06 µg/mL | ≤ 0.06 µg/mL | ≤ 0.06 µg/mL | 0.25 µg/mL
CNC(CC(C)C)C(=O)NC1C(=O)NC(CC(N)=O)C(=O)NC2C(=O)NC3C(=O)NC(C(=O)NC(C(=O)NCc4ccccc4)c4cc(O)cc(O)c4-c4cc3ccc4O)C(OC3CC(C)(N)C(O)C(C)O3)c3ccc(c(Cl)c3)Oc3cc2cc(c3OC2OC(CO)C(O)C(O)C2OC2CC(C)(N)C(O)C(C)O2)Oc2ccc(cc2Cl)C1O.O=C(O)C(F)(F)F (stereo not drawn) [Example 24, A82846B, benzylamide, trifluoroacetate salt] | ≤ 0.06 µg/mL | 0.38 | ≤ 0.06 µg/mL | > 128 | ≤ 0.06 µg/mL | ≤ 0.06 µg/mL | ≤ 0.06 µg/mL | ≤ 0.06 µg/mL | ≤ 0.06 µg/mL | ≤ 0.06 µg/mL
CNC(CC(C)C)C(=O)NC1C(=O)NC(CC(N)=O)C(=O)NC2C(=O)NC3C(=O)NC(C(=O)NC(C(=O)NCc4ccccc4)c4cc(O)cc(O)c4-c4cc3ccc4O)C(OC3CC(C)(N)C(O)C(C)O3)c3ccc(c(Cl)c3)Oc3cc2cc(c3OC2OC(CO)C(O)C(O)C2OC2CC(C)(NCc3ccc(-c4ccccc4)cc3)C(O)C(C)O2)Oc2ccc(cc2Cl)C1O.Cl (stereo not drawn) [Example 11, N^4-(4-phenylbenzyl)A82846B, benzylamide, HCl salt] | 1 µg/mL | 0.11 | 1 µg/mL | 1 | 1 µg/mL | 4 µg/mL | ≤ 0.06 µg/mL | ≤ 0.06 µg/mL | 1 µg/mL | 1 µg/mL
CNC(CC(C)C)C(=O)NC1C(=O)NC(CC(N)=O)C(=O)NC2C(=O)NC3C(=O)NC(C(=O)NC(C(=O)NCc4ccccc4)c4cc(O)cc(O)c4-c4cc3ccc4O)C(OC3CC(C)(N)C(O)C(C)O3)c3ccc(c(Cl)c3)Oc3cc2cc(c3OC2OC(CO)C(O)C(O)C2OC2CC(C)(NCc3ccc(-c4ccccc4)cc3)C(O)C(C)O2)Oc2ccc(cc2Cl)C1O (stereo not drawn) [Example 10, N^4-(4-phenylbenzyl)A82846B, benzylamide] | 0.5 µg/mL (≈ 0.271 µM) | 0.14 | 4 µg/mL (≈ 2.16 µM) | 0.84 | 2 µg/mL (≈ 1.08 µM) | 1 µg/mL (≈ 0.541 µM) | ≤ 0.06 µg/mL | ≤ 0.06 µg/mL | 0.5 µg/mL (≈ 0.271 µM) | 4 µg/mL (≈ 2.16 µM)
N^4 -(4-phenylbenzyl)A82846B, butylamide, trifluoroacetate salt [Example 3] | 0.5 µg/mL | 0.11 | 4 µg/mL | 2.4 | 2 µg/mL | 2 µg/mL | ≤ 0.06 µg/mL | ≤ 0.06 µg/mL | 1 µg/mL | 2 µg/mL
